Laboratory results from ChEMBL document CHEMBL5550116, “Discovery of novel macrocyclic derivatives as potent and selective cyclin-dependent kinase 2 inhibitors” (Bioorg Med Chem, 2024).
Activity calls are given as the source filed them. No cut-off for these calls is given here.

biological target: Cyclin-dependent kinase 7 (Homo sapiens) (UniProt P50613); experiment: Inhibition of CDK7 (unknown origin) at 1 uM; details: not given
Sequence (P50613 whole entry): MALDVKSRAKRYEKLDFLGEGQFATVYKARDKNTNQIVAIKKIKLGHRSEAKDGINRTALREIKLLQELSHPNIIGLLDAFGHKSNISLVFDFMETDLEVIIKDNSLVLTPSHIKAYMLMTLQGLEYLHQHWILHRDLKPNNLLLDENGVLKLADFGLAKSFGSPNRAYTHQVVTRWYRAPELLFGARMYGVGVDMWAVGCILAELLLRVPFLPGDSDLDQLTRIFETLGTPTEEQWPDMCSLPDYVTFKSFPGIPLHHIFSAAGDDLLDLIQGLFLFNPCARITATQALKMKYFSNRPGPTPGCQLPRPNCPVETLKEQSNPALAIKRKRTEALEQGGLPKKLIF

inhibition	SMILES
Active	CC(C)c1cnn2c3nc(nc12)N(CC1CNC1)CCCCCOc1cc(S(C)(=O)=O)ccc1CN3

biological target: CDK7/Cyclin H/MNAT1 (Homo sapiens, UniProt P50613); experiment: (§1) Inhibition of recombinant human His-tagged CDK7/cyclin H/MNAT1 expressed in baculovirus expression system using histone H1 as substrate preincubated for 10 mins followed by substrate and ATP addition and measured after 60 mins by ADP-Glo reagent based microplate reader assay; details: not given
Sequence (P51946 whole entry): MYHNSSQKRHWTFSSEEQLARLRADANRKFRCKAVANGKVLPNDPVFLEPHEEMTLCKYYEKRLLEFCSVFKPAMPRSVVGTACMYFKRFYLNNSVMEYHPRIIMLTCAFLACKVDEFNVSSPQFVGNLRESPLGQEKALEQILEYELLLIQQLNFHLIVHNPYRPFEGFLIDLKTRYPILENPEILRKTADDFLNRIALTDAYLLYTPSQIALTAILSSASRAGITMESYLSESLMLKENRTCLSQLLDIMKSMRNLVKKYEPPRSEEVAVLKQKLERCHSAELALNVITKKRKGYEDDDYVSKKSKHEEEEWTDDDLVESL
Sequence (P50613 whole entry): as the sequence (P50613 whole entry) above
Sequence (P51948 whole entry, further chain): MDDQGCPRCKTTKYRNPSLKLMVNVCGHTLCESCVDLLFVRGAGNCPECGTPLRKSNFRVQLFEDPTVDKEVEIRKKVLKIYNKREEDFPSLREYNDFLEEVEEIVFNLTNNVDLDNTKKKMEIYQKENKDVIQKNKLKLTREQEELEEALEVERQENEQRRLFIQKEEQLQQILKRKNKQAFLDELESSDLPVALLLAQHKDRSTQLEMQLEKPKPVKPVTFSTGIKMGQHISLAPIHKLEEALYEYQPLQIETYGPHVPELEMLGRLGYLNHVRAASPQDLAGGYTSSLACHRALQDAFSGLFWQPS

SMILES	Ki
CC(C)c1cnn2c3nc(nc12)N(C[C@@H]1CNC[C@H]1O)CCCCCOc1ccccc1CN3	2.8 nM
CC(C)c1cnn2c3nc(nc12)N(CC1CNC1)CCCCCOc1ccccc1CN3	101 nM
CC(C)c1cnn2c3nc(nc12)N(CC1CCN(C)CC1)CCCCCOc1ccccc1CN3	60.2 nM

Further lines, results first:

Ki	SMILES
9.5 nM	CC(C)c1cnn2c3nc(nc12)N(CC1CCNC1)CCCCCOc1ccccc1CN3 (stereo not given)
21.3 nM	CC(C)c1cnn2c3nc(nc12)N(CC1CCNCC1)CCCCCOc1cc(S(C)(=O)=O)ccc1CN3
43.4 nM	CC(C)c1cnn2c3nc(nc12)N(CC1CCNCC1)CCCCCOc1cc(C#N)ccc1CN3
161 nM	CC(C)c1cnn2c3nc(nc12)N(CC1CCNCC1)CCCCCOc1cc(C(F)(F)F)ccc1CN3

system: not listed separately; experiment: Metabolic stability in human liver microsomes assessed as half life at 1 uM preincubated with compound for 10 mins followed by beta-NADPH addition measured upto 60 mins by LC-MS/MS analysis; assay type: ADME, Microsome; details: time < 70 min

half-life at 1 µM	SMILES
46.2 min	CC(C)n1cnc2c3nc(nc21)N(CC1CNC1)CCCCCOc1cc(S(C)(=O)=O)ccc1CN3
122 min	CC(C)c1cnn2c3nc(nc12)N(CC1CNC1)CCCCCOc1cc(S(C)(=O)=O)ccc1CN3
36.1 min	CC(C)c1cnn2c3nc(nc12)N(CC1CNC1)CCCCCOc1ccccc1CN3

biological target: Cyclin-dependent kinase 12 (Homo sapiens) (UniProt Q9NYV4); experiment: Inhibition of CDK12 (unknown origin) at 1 uM; details: not given
Sequence (Q9NYV4 whole entry, looked up): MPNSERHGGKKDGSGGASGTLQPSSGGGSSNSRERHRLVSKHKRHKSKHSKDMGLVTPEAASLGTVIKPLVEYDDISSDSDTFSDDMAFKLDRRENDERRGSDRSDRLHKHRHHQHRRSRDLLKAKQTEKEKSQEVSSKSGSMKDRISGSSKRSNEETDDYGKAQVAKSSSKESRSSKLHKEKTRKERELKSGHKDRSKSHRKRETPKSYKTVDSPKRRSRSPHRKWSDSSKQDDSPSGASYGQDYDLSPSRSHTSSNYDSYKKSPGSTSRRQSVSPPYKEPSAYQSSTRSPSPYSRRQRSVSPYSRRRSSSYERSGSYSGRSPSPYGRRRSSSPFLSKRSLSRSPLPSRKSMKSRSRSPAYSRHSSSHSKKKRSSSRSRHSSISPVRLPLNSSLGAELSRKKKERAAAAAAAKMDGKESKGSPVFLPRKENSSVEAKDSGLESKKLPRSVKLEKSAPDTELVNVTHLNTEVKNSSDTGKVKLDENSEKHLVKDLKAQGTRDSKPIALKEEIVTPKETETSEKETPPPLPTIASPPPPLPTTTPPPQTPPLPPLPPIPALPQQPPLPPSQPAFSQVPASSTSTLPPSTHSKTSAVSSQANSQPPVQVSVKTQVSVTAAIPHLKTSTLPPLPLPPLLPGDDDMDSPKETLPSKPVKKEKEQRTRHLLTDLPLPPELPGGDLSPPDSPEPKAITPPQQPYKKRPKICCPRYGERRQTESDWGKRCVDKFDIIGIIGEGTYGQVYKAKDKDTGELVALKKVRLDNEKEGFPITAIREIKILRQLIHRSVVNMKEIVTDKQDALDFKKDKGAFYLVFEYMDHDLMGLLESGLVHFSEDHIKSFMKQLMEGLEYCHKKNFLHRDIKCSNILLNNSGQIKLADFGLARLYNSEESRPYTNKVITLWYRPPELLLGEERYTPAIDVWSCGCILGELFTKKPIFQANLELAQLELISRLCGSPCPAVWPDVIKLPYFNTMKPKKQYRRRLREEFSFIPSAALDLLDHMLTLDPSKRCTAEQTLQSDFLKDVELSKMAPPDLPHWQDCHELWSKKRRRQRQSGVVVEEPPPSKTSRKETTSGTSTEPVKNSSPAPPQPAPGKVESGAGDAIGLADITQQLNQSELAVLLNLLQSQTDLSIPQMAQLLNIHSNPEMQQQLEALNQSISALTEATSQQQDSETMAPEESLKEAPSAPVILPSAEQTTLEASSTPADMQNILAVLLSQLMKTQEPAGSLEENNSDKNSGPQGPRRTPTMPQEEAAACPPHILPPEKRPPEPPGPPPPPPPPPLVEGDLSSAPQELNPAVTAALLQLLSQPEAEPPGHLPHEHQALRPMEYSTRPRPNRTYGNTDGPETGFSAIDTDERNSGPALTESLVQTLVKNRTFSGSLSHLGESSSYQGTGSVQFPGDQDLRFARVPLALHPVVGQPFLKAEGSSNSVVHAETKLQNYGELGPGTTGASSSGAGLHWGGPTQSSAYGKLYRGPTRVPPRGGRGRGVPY

inhibition	SMILES
Active	CC(C)c1cnn2c3nc(nc12)N(CC1CNC1)CCCCCOc1cc(S(C)(=O)=O)ccc1CN3

system: MKN-1; experiment: Antiproliferative activity against human MKN-1 cells incubated for 5 days by CCK-8 assay; assay type: functional, cell-based; details: MKN-1, 120 h

EC50	SMILES
740 nM	CC(C)n1cnc2c3nc(nc21)N(CC1CNC1)CCCCCOc1cc(S(C)(=O)=O)ccc1CN3
310 nM	CC(C)c1cnn2c3nc(nc12)N(CC1CNC1)CCCCCOc1cc(S(C)(=O)=O)ccc1CN3
3400 nM	CC(C)c1cnn2c3nc(nc12)N(CC1CNC1)CCCCCOc1ccccc1CN3
1460 nM	CC(C)c1cnn2c3nc(nc12)N(CC1CNC1)CCCCCOc1cc(F)c(F)cc1CN3
940 nM	CC(C)c1cnn2c3nc(nc12)N(CC1CNC1)CCCCCOc1ccc(F)cc1CN3

system: not listed separately; experiment: Metabolic stability in mouse liver microsomes assessed as half life at 1 uM preincubated with compound for 10 mins followed by beta-NADPH addition measured upto 60 mins by LC-MS/MS analysis; assay type: ADME, Microsome; details: time < 70 min

half-life at 1 µM	SMILES
6.3 min	CC(C)n1cnc2c3nc(nc21)N(CC1CNC1)CCCCCOc1cc(S(C)(=O)=O)ccc1CN3
112 min	CC(C)c1cnn2c3nc(nc12)N(CC1CNC1)CCCCCOc1cc(S(C)(=O)=O)ccc1CN3
61.9 min	CC(C)c1cnn2c3nc(nc12)N(CC1CNC1)CCCCCOc1ccccc1CN3
22 min	CC(C)c1cnn2c3nc(nc12)N(CC1CNC1)CCCCCOc1cc(F)c(F)cc1CN3
15.2 min	CC(C)c1cnn2c3nc(nc12)N(CC1CNC1)CCCCCOc1ccc(F)cc1CN3

system: MKN-1; experiment: Induction of cell cycle arrest in human MKN-1 cells assessed as reduction in G2/M phase cells at 111.1 to 333.3 nM incubated for 24 hrs by PI staining based flow cytometry analysis; assay type: functional; details: dose 111.1-333.3 nM

SMILES	Activity
CC(C)n1cnc2c3nc(nc21)N(CC1CNC1)CCCCCOc1cc(S(C)(=O)=O)ccc1CN3	Active
CC(C)c1cnn2c3nc(nc12)N(CC1CNC1)CCCCCOc1cc(S(C)(=O)=O)ccc1CN3	Active

system: not listed separately; experiment: Clearance in CD1 mouse plasma at 1 mg/kg, iv measured upto 24 hrs by LC-MS/MS analysis; assay type: ADME, organism-based; details: not given

clearance	SMILES
159 mL/min/kg	CC(C)n1cnc2c3nc(nc21)N(CC1CNC1)CCCCCOc1cc(S(C)(=O)=O)ccc1CN3
159 mL/min/kg	CC(C)c1cnn2c3nc(nc12)N(CC1CNC1)CCCCCOc1cc(S(C)(=O)=O)ccc1CN3

biological target: Cyclin-dependent kinase 2 (Homo sapiens) (UniProt P24941); experiment: Inhibition of CDK2 in human MKN-1 cells assessed as reduction in Rb phosphorylation at Ser807/11 incubated for 24 hrs by Western blotting analysis; assay type: cell-based; details: dose 37-3000 nM

inhibition	SMILES
Dose-Dependent Effect	CC(C)n1cnc2c3nc(nc21)N(CC1CNC1)CCCCCOc1cc(S(C)(=O)=O)ccc1CN3
Dose-Dependent Effect	CC(C)c1cnn2c3nc(nc12)N(CC1CNC1)CCCCCOc1cc(S(C)(=O)=O)ccc1CN3

biological target: Cyclin-dependent kinase 9 (Homo sapiens) (UniProt P50750); experiment: Inhibition of CDK9 (unknown origin) at 1 uM; details: not given
Sequence (P50750 whole entry): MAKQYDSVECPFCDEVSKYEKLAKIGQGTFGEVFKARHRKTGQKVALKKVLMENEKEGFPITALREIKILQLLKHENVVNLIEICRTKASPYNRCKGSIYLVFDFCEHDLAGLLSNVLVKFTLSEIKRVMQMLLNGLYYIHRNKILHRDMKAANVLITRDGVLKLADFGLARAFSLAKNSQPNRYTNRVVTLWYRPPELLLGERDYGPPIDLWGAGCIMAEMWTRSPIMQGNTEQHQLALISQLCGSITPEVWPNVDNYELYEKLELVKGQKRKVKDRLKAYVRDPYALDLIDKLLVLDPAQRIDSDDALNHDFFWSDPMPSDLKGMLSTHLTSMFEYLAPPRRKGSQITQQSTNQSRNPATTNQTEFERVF

inhibition	SMILES
Active	CC(C)c1cnn2c3nc(nc12)N(CC1CNC1)CCCCCOc1cc(S(C)(=O)=O)ccc1CN3

biological target: Cyclin-dependent kinase 13 (Homo sapiens) (UniProt Q14004); experiment: Inhibition of CDK13 (unknown origin) at 1 uM; details: not given

inhibition	SMILES
Active	CC(C)c1cnn2c3nc(nc12)N(CC1CNC1)CCCCCOc1cc(S(C)(=O)=O)ccc1CN3

species: Homo sapiens; experiment: Inhibition of CDK1/cyclin A2 (unknown origin) at 100 nM by ADP-Glo assay; details: not given

inhibition	SMILES
Active	CC(C)c1cnn2c3nc(nc12)N(CC1CNC1)CCCCCOc1cc(S(C)(=O)=O)ccc1CN3

biological target: Cyclin-dependent kinase 1 (Homo sapiens) (UniProt P06493); experiment: Inhibition of CDK1 (unknown origin) at 1 uM; details: not given
Sequence (P06493 whole entry, looked up): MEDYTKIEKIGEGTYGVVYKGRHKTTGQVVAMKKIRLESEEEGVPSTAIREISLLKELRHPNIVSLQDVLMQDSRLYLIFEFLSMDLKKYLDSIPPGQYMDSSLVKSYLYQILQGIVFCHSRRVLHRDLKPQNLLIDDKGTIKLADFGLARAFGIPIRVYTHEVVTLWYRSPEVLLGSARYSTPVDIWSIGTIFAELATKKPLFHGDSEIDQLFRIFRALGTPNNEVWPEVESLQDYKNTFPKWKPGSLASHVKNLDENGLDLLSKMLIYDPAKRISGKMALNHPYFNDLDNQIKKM

inhibition	SMILES
Active	CC(C)c1cnn2c3nc(nc12)N(CC1CNC1)CCCCCOc1cc(S(C)(=O)=O)ccc1CN3

biological target: Cyclin-dependent kinase 2/cyclin E1 (Homo sapiens, UniProt P24941); experiment: Inhibition of full length N-terminal GST-tagged human CDK2 (1 to 298 residues)/cyclin E1 (1 to 410 residues) expressed in Sf21 cells using histone H1 as substrate preincubated for 10 mins followed by substrate and ATP addition and measured after 60 mins by ADP-Glo reagent based microplate reader assay; details: not given

SMILES	Ki
CC(C)c1cnn2c3nc(nc12)N(CCC1CNC1)CCCCCOc1ccccc1CN3	48.4 nM
CC(C)n1cnc2c3nc(nc21)N(CC1CNC1)CCCCCOc1cc(S(C)(=O)=O)ccc1CN3	3.6 nM
CC(C)c1cnn2c3nc(nc12)N(C[C@@H]1CNC[C@H]1O)CCCCCOc1ccccc1CN3	0.7 nM
CC(C)c1cnn2c3nc(nc12)N(CC1CNC1)CCCCCOc1ccccc1CN3	3 nM
CC(C)c1cnn2c3nc(nc12)N(CC1CNC1)CCCCCOc1cc(F)c(F)cc1CN3	3.4 nM
CC(C)c1cnn2c3nc(nc12)N(CC1CCN(C)CC1)CCCCCOc1ccccc1CN3	2.7 nM
CC(C)c1cnn2c3nc(nc12)N(CC1CNC1)CCCCCOc1ccc(F)cc1CN3	1 nM

Second part, the compound after the results:

Ki	SMILES
1 nM	CC(C)c1cnn2c3nc(nc12)N(CC1CCNC1)CCCCCOc1ccccc1CN3 (stereo not given)
4.9 nM	CC(C)c1cnn2c3nc(nc12)N(CC1CCNCC1)CCCCCOc1cc(S(C)(=O)=O)ccc1CN3
1 nM	CC(C)c1cnn2c3nc(nc12)N(CC1CNC1)CCCCCOc1cc(S(C)(=O)=O)ccc1CN3
9.4 nM	CC(C)c1cnn2c3nc(nc12)N(CC1CCNCC1)CCCCCOc1cc(C#N)ccc1CN3
15.1 nM	CC(C)c1cnn2c3nc(nc12)N(CC1CCNCC1)CCCCCOc1cc(C(F)(F)F)ccc1CN3

biological target: CDK12/Cyclin K (Homo sapiens) (UniProt O75909+Q9NYV4); experiment: Inhibition of CDK12/Cyclin K (unknown origin) at 100 nM by HTRF assay; assay type: protein-complex assay; details: not given

inhibition	SMILES
Active	CC(C)c1cnn2c3nc(nc12)N(CC1CNC1)CCCCCOc1cc(S(C)(=O)=O)ccc1CN3

biological target: CDK9/cyclin T1 (Homo sapiens, UniProt P50750); experiment: as §1, with “of full-length” for “of”, “recombinant N-terminal GST-tagged” for “recombinant”, “CDK9 (1 to 372 residues)/His-tagged cyclinT1 (1 to 726 residues)” for “His-tagged CDK7/cyclin H/MNAT1”; details: not given
Sequence (O60563 whole entry, the tested form may be a part): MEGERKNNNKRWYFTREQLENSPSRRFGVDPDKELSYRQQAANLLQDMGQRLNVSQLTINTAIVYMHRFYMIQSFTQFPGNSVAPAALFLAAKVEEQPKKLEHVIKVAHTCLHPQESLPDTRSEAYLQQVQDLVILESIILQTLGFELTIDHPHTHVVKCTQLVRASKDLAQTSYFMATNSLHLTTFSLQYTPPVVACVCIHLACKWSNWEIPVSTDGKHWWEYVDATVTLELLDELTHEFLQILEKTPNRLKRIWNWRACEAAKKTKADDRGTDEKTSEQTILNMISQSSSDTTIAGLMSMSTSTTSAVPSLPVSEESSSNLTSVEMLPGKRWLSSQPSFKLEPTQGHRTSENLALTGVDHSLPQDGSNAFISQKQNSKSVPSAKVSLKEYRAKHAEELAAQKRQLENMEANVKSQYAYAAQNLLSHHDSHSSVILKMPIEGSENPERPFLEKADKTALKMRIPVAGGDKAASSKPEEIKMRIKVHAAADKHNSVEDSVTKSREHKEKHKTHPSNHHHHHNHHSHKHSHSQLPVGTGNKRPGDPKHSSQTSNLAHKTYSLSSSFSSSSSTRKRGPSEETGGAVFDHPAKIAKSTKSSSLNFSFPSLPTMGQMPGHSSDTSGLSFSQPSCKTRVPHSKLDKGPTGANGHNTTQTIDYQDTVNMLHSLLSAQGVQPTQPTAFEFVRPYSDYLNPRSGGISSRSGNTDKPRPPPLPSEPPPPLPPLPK
Sequence (P50750 whole entry, the tested form may be a part): as the sequence (P50750 whole entry) above

SMILES	Ki
CC(C)c1cnn2c3nc(nc12)N(CC1CNC1)CCCCCOc1ccccc1CN3	60 nM
CC(C)c1cnn2c3nc(nc12)N(CC1CCN(C)CC1)CCCCCOc1ccccc1CN3	16.3 nM

Other lines, results leading:

Ki	SMILES
2.7 nM	CC(C)c1cnn2c3nc(nc12)N(CC1CCNCC1)CCCCCOc1cc(S(C)(=O)=O)ccc1CN3
5.8 nM	CC(C)c1cnn2c3nc(nc12)N(CC1CCNCC1)CCCCCOc1cc(C#N)ccc1CN3
43.3 nM	CC(C)c1cnn2c3nc(nc12)N(CC1CCNCC1)CCCCCOc1cc(C(F)(F)F)ccc1CN3

biological target: Cyclin-dependent kinase 5/CDK5 activator 1 (Homo sapiens, UniProt Q00535); experiment: Inhibition of human CDK5/p25NCK using histone H1 as substrate preincubated for 10 mins followed by substrate and ATP addition and measured after 60 mins by ADP-Glo reagent based microplate reader assay; assay type: protein-complex assay; details: not given
Sequence (Q00535 whole entry): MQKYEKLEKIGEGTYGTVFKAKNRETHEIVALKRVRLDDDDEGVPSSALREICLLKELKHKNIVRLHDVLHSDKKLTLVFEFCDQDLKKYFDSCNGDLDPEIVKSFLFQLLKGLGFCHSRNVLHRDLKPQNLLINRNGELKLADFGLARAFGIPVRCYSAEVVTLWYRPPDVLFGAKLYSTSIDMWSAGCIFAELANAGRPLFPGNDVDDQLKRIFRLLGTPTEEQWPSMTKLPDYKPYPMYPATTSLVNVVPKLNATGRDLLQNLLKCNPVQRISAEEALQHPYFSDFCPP
Sequence (Q15078 whole entry, further chain): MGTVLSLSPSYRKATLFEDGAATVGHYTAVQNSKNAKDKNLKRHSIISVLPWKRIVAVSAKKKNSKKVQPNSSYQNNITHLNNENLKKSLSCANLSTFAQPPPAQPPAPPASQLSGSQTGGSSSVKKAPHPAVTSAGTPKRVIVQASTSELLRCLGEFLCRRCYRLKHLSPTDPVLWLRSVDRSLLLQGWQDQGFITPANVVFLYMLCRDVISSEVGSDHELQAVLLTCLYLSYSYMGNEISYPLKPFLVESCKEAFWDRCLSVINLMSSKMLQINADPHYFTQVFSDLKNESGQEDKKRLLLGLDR

SMILES	Ki
CC(C)c1cnn2c3nc(nc12)N(CCC1CNC1)CCCCCOc1ccccc1CN3	28.7 nM
CC(C)c1cnn2c3nc(nc12)N(C[C@@H]1CNC[C@H]1O)CCCCCOc1ccccc1CN3	0.9 nM
CC(C)c1cnn2c3nc(nc12)N(CC1CNC1)CCCCCOc1ccccc1CN3	30.7 nM
CC(C)c1cnn2c3nc(nc12)N(CC1CCN(C)CC1)CCCCCOc1ccccc1CN3	1 nM

Now from value to compound:

Ki	SMILES
3.6 nM	CC(C)c1cnn2c3nc(nc12)N(CC1CCNC1)CCCCCOc1ccccc1CN3 (stereo not given)
2.4 nM	CC(C)c1cnn2c3nc(nc12)N(CC1CCNCC1)CCCCCOc1cc(S(C)(=O)=O)ccc1CN3
4.4 nM	CC(C)c1cnn2c3nc(nc12)N(CC1CCNCC1)CCCCCOc1cc(C#N)ccc1CN3
42.1 nM	CC(C)c1cnn2c3nc(nc12)N(CC1CCNCC1)CCCCCOc1cc(C(F)(F)F)ccc1CN3

biological target: Cyclin-dependent kinase 2 (Homo sapiens) (UniProt P24941); experiment: Inhibition of CDK2 in human MKN-1 cells assessed as reduction in Rb phosphorylation at Ser780 incubated for 24 hrs by Western blotting analysis; assay type: cell-based; details: dose 37-3000 nM

inhibition	SMILES
Dose-Dependent Effect	CC(C)n1cnc2c3nc(nc21)N(CC1CNC1)CCCCCOc1cc(S(C)(=O)=O)ccc1CN3
Dose-Dependent Effect	CC(C)c1cnn2c3nc(nc12)N(CC1CNC1)CCCCCOc1cc(S(C)(=O)=O)ccc1CN3

system: MKN-1; experiment: Induction of cell cycle arrest in human MKN-1 cells assessed as accumulation of cells at G0/G1 phase at 111.1 to 333.3 nM incubated for 24 hrs by PI staining based flow cytometry analysis; assay type: functional; details: dose 111.1-333.3 nM

SMILES	Activity
CC(C)n1cnc2c3nc(nc21)N(CC1CNC1)CCCCCOc1cc(S(C)(=O)=O)ccc1CN3	Active
CC(C)c1cnn2c3nc(nc12)N(CC1CNC1)CCCCCOc1cc(S(C)(=O)=O)ccc1CN3	Active

system: not listed separately; experiment: Drug uptake in CD1 mouse plasma at 10 mg/kg, po measured upto 24 hrs by LC-MS/MS analysis; assay type: ADME, organism-based; details: in vivo

Drug uptake	SMILES
Not Active	CC(C)n1cnc2c3nc(nc21)N(CC1CNC1)CCCCCOc1cc(S(C)(=O)=O)ccc1CN3
Not Active	CC(C)c1cnn2c3nc(nc12)N(CC1CNC1)CCCCCOc1cc(S(C)(=O)=O)ccc1CN3

biological target: Cyclin-dependent kinase 5 (Homo sapiens) (UniProt Q00535); experiment: Inhibition of CDK5 (unknown origin) at 1 uM; details: not given
Sequence (Q00535 whole entry, looked up): as the sequence (Q00535 whole entry) above

inhibition	SMILES
Active	CC(C)c1cnn2c3nc(nc12)N(CC1CNC1)CCCCCOc1cc(S(C)(=O)=O)ccc1CN3
